# Measured values reported in patent US10472635B2, “Methods of treating brain edema” (priority 2015, dated 2019).
# Legend:
# VRAC = settings: cited from earlier work
# [1] = system: neuronal [Na^+]i in brain slices; assay: Neuronal [Na+]i by CoroNa Green fluorescence / two-photon FLIM; assay type: cell-based, rat; settings: CoroNa signal; TTX 1 μM; DIDS 250 μM
# SLC26A11 = target: T1, SLC26A11 (Homo sapiens, UniProt Q86WA9); settings: cited from earlier work
# T1 sequence (Q86WA9 1-606): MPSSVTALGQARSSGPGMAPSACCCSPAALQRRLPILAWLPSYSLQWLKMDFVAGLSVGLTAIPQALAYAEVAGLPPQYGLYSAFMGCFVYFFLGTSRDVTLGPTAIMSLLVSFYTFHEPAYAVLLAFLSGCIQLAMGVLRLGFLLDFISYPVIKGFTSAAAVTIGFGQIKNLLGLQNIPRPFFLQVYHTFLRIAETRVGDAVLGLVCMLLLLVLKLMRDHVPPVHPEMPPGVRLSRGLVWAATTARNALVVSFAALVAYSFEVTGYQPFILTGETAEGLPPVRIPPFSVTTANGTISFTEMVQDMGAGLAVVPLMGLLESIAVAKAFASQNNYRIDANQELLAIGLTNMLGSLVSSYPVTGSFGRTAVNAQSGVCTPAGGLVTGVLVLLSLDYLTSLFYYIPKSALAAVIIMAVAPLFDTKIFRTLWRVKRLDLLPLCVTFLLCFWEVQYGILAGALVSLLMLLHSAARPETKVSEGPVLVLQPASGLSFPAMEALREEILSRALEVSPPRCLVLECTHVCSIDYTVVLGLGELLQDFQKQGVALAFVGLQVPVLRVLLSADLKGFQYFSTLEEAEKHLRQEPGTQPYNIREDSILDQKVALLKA
# [2] = system: voltage-dependent Cl^− current in layer 4 cortical neurons; assay: Whole-cell voltage clamp of depolarization-activated Cl- current; assay type: cell-based, rat; settings: depolarization to −20 mV or greater; cocktail of channel blockers; GlyH-101 by dialysis
# Protocol: Electrophysiology: Whole-cell recordings were performed in the presence of antagonists of GABAA (10 μM picrotoxin), AMPA/kainite (10 μM 6-cyano-7-nitoquinoxaline-2,3-dione—CNQX), and NMDA (2R-amino-5-phosphonovaleric acid—APV) receptors. 60 μM cadmium, 50 μM nickel and 100 μM 4AP (4-aminopyridine) were used to block voltage-gated calcium channels and A-type potassium channels. Whole-cell voltage-clamp recordings from cortical neurons were carried out at room temperature while the recording chamber was perfused with ACSF at 1-1.5 ml min-1. Recordings were made using a MultiClamp 700B amplifier controlled by Clampex 10.2 via a Digidata 1440A data acquisition system with 3-5M ? glass electrodes. The pipette solution containing (in m ? ): 108 CsCl, 8 TEA-Cl, 8 NaGluc, 1 CsEGTA, 4 K-ATP, 0.3 Na-GTP, 10 Hepes, 2MgCl2 (pH 7.2 with CsOH, 286 mosmol 1-1). Normal ACSF contained (in mM): 126 NaCl, 26 NaHCO3, 10 glucose, 2 MgCl2, 1.25 NaH2PO4, 2.5 KCl, 2.0 CaCl2 (pH 7.25, 310 mosmol 1-1). NaCl was replaced with 126 mM Na-isethionate in the low-chloride ACSF. Recordings where the series resistance varied more than 10% were rejected. Data were analyzed with Clampfit 10.0.
# The opening of Na^+ permeable channels causes both [Na^+]i accumulation and neuronal depolarization. […] However progressive accumulation of extracellular K^+ could lead to further depolarization of the membrane. […]
# Maxi-Anion Channel = settings: cited from earlier work
# rat hippocampal slices = assay: LDH release cell death assay in hippocampal slices; assay type: cell-based
# [3] = system: cortical neurons in brain slices; assay: Neuronal swelling imaging assay in brain slices (cross sectional area of CoroNa-stained soma, two-photon); assay type: cell-based, rat
# SLC4-A3, A8, A10 = settings: cited from earlier work
compound,measurement,setting,value
O=S(=O)(O)c1cc(N=C=S)ccc1C=Cc1ccc(N=C=S)cc1S(=O)(=O)O [DIDS],concentration (antagonist sensitivity of channel/transporter),VRAC,100 to 400 µM
same,effect on veratridine-induced [Na+]i increase,[1],not affected
same,concentration (antagonist sensitivity of channel/transporter),SLC26A11,0.5 to 1 mM
same,effect on non-inactivating Cl- current elicited by depolarization,[2],blocked
same,concentration (antagonist sensitivity of channel/transporter),Maxi-Anion Channel,100 µM
same,effect on veratridine-induced cell death (LDH release),rat hippocampal slices; 50 μM veratridine,prevented cell death
same,"effect on NMDA-induced cell death (LDH release), Ca2+-independent",rat hippocampal slices; NMDA in Ca2+ free extracellular solution,blocked
same,"effect on NMDA-induced cell death (LDH release), Ca2+-dependent","rat hippocampal slices; NMDA with extracellular Ca2+ present, reduced extracellular Na+",not blocked
same,effect on veratridine-induced neuronal swelling,"[3]; 22-24 °C, antagonist bath applied and in puffing pipette, DIDS 250 μM, NPPB 200 μM, TTX 1 μM",reduced the swelling
same,effect on veratridine-stimulated neuronal swelling at 37 °C,"[3]; 37 °C, Calcein green-AM",block
same,effect on NMDA-induced neuronal swelling,"[3]; DIDS 250 μM, 500 μM, 1 mM, d-APV 100 μM",blocked NMDA-evoked neuronal swelling in a dose-dependent manner
same,concentration (antagonist sensitivity of channel/transporter),"SLC4-A3, A8, A10",0.1 to 0.5 mM
